Data taken from ChEMBL document CHEMBL1201862, “PubChem BioAssay data set” (2004).
Each block holds one compound with its values, some of them ahead of it. Calls of active or inactive are those of the source.

Key:
[1] = viability of uninfected HEp-2 cells – cell-based, HTS, cytotoxicity control for RSV inhibitor project, dose response (AID 2410); type: functional; details: human respiratory syncytial virus
[2] = molecular target: T1, Mannose-6-phosphate isomerase (Homo sapiens, UniProt P34949); assay: MPI enzyme activity inhibition – biochemical, fluorescence intensity, coupled assay, primary screen (AID 1209)
T1 sequence (P34949 whole entry): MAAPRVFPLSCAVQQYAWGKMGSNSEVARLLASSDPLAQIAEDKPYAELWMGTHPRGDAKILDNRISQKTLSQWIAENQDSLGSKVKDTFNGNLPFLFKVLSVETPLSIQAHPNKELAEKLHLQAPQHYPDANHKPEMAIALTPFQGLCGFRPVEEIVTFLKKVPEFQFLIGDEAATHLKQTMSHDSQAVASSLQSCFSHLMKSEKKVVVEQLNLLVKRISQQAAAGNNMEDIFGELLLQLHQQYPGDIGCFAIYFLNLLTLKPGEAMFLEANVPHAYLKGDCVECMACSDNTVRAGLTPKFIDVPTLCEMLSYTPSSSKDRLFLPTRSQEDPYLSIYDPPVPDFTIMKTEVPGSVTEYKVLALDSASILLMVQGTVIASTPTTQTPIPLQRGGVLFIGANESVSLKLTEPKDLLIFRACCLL

[3] = HIV-1 AD8 envelope cell-cell fusion blockers – cherry-pick, dose response (AID 652062); type: functional, cell-based;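 note: luciferase signal from cell-cell fusion driven by HIV-1 clade B AD8 Env; potency is for inhibitors of fusion seen as a drop in luminescence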
[4] = blockers of HIV-1 envelope-mediated cell-cell fusion – cherry-pick, dose response (AID 652057); type: functional, cell-based
[5] = off-target signal loss in HeLa-CEM21 co-culture – HeLa F-luc CTL cells, cherry-picked, counter-screen for HIV-1 Env fusion inhibitor project, dose response (AID 652040); type: functional, cell-based;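 note: potency for signal decrease marking cytotoxic or nonspecific inhibition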
[6] = blockers of HIV-1 ZM109 envelope-driven cell-cell fusion – HeLa effector, CEM target cells, luciferase, cherry-pick, dose response (AID 652058); type: functional, cell-based;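 note: luciferase signal from HIV-1 Env mediated cell-cell fusion of effector and target cells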
[7] = molecular target: Peroxisome proliferator-activated receptor gamma/Nuclear receptor coactivator 3 (Homo sapiens, UniProt P37231); type: functional;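 note: agonist potency for raising coactivator recruitment to the receptor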
Peroxisome proliferator-activated receptor gamma/Nuclear receptor coactivator 3, sequence (P37231 whole entry): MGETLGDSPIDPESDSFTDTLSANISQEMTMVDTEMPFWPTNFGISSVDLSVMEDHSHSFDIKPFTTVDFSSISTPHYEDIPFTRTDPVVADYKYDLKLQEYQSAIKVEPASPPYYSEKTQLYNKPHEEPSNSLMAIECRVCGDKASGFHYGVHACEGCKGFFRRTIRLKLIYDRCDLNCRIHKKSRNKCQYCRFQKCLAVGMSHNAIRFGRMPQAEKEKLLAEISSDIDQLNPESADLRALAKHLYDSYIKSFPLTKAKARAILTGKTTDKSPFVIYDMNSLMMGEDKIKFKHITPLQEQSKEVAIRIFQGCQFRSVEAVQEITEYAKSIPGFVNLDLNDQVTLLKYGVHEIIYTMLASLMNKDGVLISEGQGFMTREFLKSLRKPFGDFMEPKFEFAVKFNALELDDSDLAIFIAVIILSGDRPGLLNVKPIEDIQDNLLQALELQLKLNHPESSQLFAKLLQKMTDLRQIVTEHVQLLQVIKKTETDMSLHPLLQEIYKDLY
Peroxisome proliferator-activated receptor gamma/Nuclear receptor coactivator 3, sequence (Q9Y6Q9 whole entry, further chain): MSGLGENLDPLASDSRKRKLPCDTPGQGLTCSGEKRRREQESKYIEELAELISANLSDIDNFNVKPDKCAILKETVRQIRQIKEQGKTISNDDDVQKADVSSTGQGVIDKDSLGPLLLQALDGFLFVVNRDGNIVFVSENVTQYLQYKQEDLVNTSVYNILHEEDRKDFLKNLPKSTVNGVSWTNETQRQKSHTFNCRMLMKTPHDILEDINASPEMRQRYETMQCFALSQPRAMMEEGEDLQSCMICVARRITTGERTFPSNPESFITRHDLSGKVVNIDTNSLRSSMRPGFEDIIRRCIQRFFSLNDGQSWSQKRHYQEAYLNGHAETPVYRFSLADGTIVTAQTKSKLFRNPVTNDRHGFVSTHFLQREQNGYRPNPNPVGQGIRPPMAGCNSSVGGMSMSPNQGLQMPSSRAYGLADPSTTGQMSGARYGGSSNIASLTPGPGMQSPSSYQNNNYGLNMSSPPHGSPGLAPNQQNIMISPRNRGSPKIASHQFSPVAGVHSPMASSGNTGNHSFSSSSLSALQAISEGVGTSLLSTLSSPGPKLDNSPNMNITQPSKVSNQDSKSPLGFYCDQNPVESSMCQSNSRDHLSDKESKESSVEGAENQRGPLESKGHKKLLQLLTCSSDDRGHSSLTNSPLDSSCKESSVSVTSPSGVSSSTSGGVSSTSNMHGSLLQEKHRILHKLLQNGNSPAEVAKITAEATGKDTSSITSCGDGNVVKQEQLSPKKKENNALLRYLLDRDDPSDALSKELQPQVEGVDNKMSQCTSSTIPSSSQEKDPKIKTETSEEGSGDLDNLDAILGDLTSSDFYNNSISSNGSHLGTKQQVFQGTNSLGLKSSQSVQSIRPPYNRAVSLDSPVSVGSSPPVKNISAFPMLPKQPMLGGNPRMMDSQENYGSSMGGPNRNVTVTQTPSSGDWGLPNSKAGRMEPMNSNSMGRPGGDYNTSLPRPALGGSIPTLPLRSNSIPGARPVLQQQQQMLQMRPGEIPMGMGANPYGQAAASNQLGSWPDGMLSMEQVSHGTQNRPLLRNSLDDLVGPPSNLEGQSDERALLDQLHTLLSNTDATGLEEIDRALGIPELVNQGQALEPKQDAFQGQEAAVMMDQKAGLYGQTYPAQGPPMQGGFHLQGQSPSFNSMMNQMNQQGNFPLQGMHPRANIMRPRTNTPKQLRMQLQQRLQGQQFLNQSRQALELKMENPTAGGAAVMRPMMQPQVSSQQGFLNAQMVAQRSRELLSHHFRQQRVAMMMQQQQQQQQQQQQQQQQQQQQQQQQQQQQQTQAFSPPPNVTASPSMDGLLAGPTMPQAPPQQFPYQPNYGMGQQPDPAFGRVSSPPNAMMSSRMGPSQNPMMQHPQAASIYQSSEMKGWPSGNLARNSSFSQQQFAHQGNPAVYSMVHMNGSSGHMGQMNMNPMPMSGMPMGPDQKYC

[8] = molecular target: Peroxisome proliferator-activated receptor gamma/Nuclear receptor coactivator 1 (Homo sapiens, UniProt P37231); type: functional;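 note: agonist potency as compounds enhance coactivator SRC-1 recruitment to PPARgamma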
Peroxisome proliferator-activated receptor gamma/Nuclear receptor coactivator 1, sequence (P37231 whole entry): as the sequence (P37231 whole entry) above
Peroxisome proliferator-activated receptor gamma/Nuclear receptor coactivator 1, sequence (Q15788 whole entry, further chain): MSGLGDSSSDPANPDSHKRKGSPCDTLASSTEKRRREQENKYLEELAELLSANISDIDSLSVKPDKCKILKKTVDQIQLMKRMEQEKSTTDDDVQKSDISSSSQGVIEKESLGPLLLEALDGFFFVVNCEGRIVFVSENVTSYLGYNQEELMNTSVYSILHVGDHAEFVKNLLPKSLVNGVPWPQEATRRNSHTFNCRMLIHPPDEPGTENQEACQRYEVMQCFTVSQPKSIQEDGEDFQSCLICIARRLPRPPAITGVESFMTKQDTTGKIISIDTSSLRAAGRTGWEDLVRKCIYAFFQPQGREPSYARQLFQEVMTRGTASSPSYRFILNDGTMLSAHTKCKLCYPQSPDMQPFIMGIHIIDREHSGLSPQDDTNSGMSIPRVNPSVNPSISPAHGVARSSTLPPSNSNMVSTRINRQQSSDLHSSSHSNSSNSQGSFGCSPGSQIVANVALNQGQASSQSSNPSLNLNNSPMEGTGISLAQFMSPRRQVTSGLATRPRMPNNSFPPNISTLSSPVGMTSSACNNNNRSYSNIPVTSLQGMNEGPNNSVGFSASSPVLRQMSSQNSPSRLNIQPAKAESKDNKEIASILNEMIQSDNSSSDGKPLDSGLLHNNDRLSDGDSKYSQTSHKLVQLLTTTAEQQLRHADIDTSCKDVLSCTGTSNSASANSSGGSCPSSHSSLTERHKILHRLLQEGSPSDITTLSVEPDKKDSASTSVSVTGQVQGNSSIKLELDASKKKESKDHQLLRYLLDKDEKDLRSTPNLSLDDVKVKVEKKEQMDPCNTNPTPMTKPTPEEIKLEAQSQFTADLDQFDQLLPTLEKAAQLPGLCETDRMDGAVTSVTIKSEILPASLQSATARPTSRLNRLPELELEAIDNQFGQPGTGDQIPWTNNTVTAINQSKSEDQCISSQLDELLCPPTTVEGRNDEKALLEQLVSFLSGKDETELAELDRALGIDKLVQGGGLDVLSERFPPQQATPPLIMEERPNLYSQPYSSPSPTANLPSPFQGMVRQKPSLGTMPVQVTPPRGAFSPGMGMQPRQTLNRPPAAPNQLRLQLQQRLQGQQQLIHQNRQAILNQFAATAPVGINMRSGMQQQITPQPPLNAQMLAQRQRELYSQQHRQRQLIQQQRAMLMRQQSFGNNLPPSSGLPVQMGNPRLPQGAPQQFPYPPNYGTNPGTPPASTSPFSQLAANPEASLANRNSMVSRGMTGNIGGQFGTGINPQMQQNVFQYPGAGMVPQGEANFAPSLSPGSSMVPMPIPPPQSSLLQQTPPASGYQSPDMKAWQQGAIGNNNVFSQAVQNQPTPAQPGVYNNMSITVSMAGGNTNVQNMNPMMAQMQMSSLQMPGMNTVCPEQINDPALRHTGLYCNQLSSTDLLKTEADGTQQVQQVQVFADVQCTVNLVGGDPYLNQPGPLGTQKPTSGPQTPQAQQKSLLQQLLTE

[9] = molecular target: Peroxisome proliferator-activated receptor gamma/Nuclear receptor coactivator 2 (Homo sapiens, UniProt P37231); type: functional;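 note: agonist potency for raising coactivator recruitment to the receptor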
Ion channel NompC = Ion channel NompC (Danio rerio, UniProt Q7T1G6); assay: Fluorescence counterscreen assay for TRPML3 agonists: dose response cell-based high-throughput screening assay to identify agonists of the transient receptor potential channel N1 (TRPN1). [Related pubchem assays: 1526, 1424, 1448 ]; type: functional
Mucolipin-3 = Mucolipin-3 (Homo sapiens, UniProt Q8TDD5); assay: Dose response cell-based high-throughput screening assay for agonists of the transient receptor potential channel ML3 (TRPML3). [Related pubchem assays: 1526, 1424, 1448 ]; type: functional
Mucolipin-3, sequence (Q8TDD5 whole entry): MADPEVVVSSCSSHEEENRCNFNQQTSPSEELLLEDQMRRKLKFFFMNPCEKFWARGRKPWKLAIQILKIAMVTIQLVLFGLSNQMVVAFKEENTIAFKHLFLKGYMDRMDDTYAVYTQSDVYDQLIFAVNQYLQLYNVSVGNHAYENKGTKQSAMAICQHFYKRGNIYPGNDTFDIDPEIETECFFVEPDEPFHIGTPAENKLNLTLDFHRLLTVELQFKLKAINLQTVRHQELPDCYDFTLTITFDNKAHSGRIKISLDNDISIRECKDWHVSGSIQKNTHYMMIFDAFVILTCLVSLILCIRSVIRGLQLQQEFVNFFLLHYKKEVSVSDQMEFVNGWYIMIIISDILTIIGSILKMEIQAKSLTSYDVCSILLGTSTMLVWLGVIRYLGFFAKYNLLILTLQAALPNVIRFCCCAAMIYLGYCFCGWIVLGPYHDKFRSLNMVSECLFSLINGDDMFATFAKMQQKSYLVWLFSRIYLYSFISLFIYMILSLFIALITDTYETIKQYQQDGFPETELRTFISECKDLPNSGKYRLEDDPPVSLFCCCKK

Structure (SMILES): CCN(CC(=O)Nc1cc(Cl)ccc1C)C(=O)CSCc1ccc(C)cc1
CC50 [1]: 24.5 µM (active)
IC50 (cells): 22.8 µM (active)

Structure (SMILES): O=C(NCc1ccco1)c1ccc(Cn2c(=O)c3ccccc3n(Cc3ccc(Cl)cc3)c2=O)cc1
AC50 [3]: 5.95 µM (active)
AC50 [4]: 0.669 µM (active)
AC50 [5]: 0.421 µM (active)
CC50 [1]: > 50 µM (active)
AC50 [6]: 1.48 µM (active)
IC50 (cells): 0.58 µM (active)

Next, values leading:

IC50 [2]: > 50 µM (not active)
Structure (SMILES): CCOc1ccc2c(c1)C(C)=CC(C)(C)N2C(=O)Nc1ccccc1

EC50 [7]: > 79.4 µM (not active)
EC50 [8]: > 79.4 µM (not active)
EC50 [9]: > 79.4 µM (not active)
Structure (SMILES): COc1cnn(-c2ccccc2)c(=O)c1N(C)C

EC50 (Ion channel NompC): > 29.9 µM (not active)
EC50 (Mucolipin-3): 2.84 µM (active)
Structure (SMILES): COc1cc(C)ccc1S(=O)(=O)N1CCCCCC1
